Patent publication US20240239818A1, “COMPOUNDS AND COMPOSITIONS COMPRISING FLUOROPHORES FOR USE IN VISUALIZATION AND PURIFICATION OR MANIPULATION” (priority 2022, published 2024)

Key:
[1] = molecular target: T1, msGFP-HaloTag® fusion protein (mitochondria) from HEK293T cells (Rhodococcus rhodochrous, UniProt P0A3G2, A155T/A167V/A172T/A224E/C128F/C176G/D78G/E160K/E257K/H272N/K175M/K195N/L47V/L88M/N227D/S58T/T264A/Y273L/Y87F); experiment: Affinity capture (streptavidin microbeads) and in-gel fluorescence; type: cell-based; settings: for affinity capture (protein bound to streptavidin): streptavidin beads; for capture efficiency: mean±SEM, n=3, streptavidin beads
T1 construct: and (4) HaloTag®; expressed in transfected cells; host or cells: HEK293T, calcium phosphate transfection
T1 sequence (P0A3G2 other isoform, or with tags, fused parts or gaps with the stated changes): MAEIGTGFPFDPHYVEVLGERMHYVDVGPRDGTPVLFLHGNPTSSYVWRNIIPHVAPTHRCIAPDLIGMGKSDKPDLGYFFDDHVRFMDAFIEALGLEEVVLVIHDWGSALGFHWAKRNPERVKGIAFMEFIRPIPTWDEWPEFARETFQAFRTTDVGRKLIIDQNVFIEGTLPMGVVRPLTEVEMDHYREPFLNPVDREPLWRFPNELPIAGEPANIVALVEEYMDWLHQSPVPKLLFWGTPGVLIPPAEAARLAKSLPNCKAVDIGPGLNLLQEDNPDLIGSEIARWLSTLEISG
Protocol: Affinity capture and in-gel fluorescence experiments. Affinity capture pulldown isolation experiments of biotin-labeled HaloTag® fusion proteins were performed on ice-cold isolation buffer (IB) consisting of KCl (0.18 M), ethylene glycol-bis(β-aminoethyl ether)-N,N,N′,N′-tetraacetic acid (EGTA; 1 mM), 3-(N-morpholino)propanesulfonic acid (MOPS; 5 mM); the pH was adjusted to pH=7.35 using KOH(aq).^51 HEK293T cells were scraped with 500 μL IB and homogenized using 12 strokes with a 27G syringe. The resulting homogenate was spun at 4° C. at 1000 g for 3 min to pellet large cellular debris. 50 μL of streptavidin-coated microbeads (Miltenyi, 130-048-101) were added to the supernatant and incubated for 30 min at 4° C. with slow rotation. LS columns (Miltenyi, 130-042-401) were prepared by first washing with 3 mL IB consisting of 2.5% bovine serum albumin (BSA; Jackson ImmunoResearch, 001-000-162) and then with plain IB (3×). Prior to supernatant-microbead mixture being loaded onto LS columns, 5% volume was taken for downstream total fraction calculations (i.e., the “total/20” sample). Columns and samples were kept at 4° C. (cold room) while samples were loaded onto columns and washed with IB (3×); this fraction was collected as designated as “wash”. After the washing step, the column was removed from the QuadroMACs magnet holder (Miltenyi, 130-092-857) and eluted with gentle plunge action into an Eppendorf tube; this was labeled as “eluate”. From here, there were three fractions for each condition: total/20, wash (unbound), and eluate (bound). Since mitochondria were being isolated, these samples were spun at 4° C. and 20,000 g to pellet mitochondria. These samples were then solubilized using the lysis buffer containing 1×PBS, 2% SDS, 1% Triton x-100, 10 mM EDTA, and protease inhibitors (2 mM PMSF, aprotinin, leupeptin, and pepstatin A). Samples were then incubated at 72° C. for 3-4 min after the addition of sample buffer (SB) (DTT, glycerol, and bromophenol blue). For protein detection, 10-20 μL of the sample was subjected to sodium dodecyl sulfate-polyacrylamide gel electrophoresis (SDS-PAGE), using 13% gels. The affinity capture pulldown efficiency was monitored using in-gel fluorescence. The msGFP signal from HaloTag®-TEV-4×GS-msGFP-mito after cell lysis and SDS-PAGE was analyzed, in-gel, using a BioRad Chemidoc MP imager (BioRad) through GFP fluorescence excitation and emission filters. Data were quantified by densitometry using Fiji.^52 Capture efficiency was calculated using equation 3:
[formula] • where Ieluate is the in-gel fluorescence intensity of the bead-bound fraction and Itotal/20 is the in-gel fluorescence intensity of the 5% of crude sample reserved for concentration control (i.e., the “total/20” sample).
Evaluation of biotin-HaloTag® ligand. A live cell permeable biotin reagent was saught for affinity pulldown of HaloTag® fusion proteins, given the broad utility of biotin conjugates in biochemistry and cell biology. To evaluate the performance of biotin-containing HaloTag® ligand, an assay was developed (FIG. 3A) where the HaloTag® is expressed as a fusion with monomeric superfolder green fluorescent protein (msGFP); the construct also included an OMP25 sequence to localize the fusion protein to the outer mitochondrial membrane, allowing straightforward imaging and affinity capture experiments.^28-29 HEK293T cells expressing this fusion protein were incubated with biotin-containing HaloTag® ligands followed by washing and cell lysis. The crude supernatant was incubated with streptavidin-coated magnetic microbeads, applied to a magnetic column, and washed. The magnet was removed, and the bead-bound mitochondria were eluted, lysed, and the resulting solution was analyzed by sodium dodecyl sulfate-polyacrylamide gel electrophoresis (SDS-PAGE) and in-gel fluorescence. To minimize dilution of the sample only the initial bead-bound fraction was collected, leaving some material on the column. […]

[2] = Determination of lactone-zwitterion equilibrium constant (KL-Z); type: physicochemical; settings: 1:1 (v/v) dioxane:water
Protocol: Determination of KL-Z. The lactone-zwitterion equilibrium constant (KL-Z) was calculated as described previously^13, 23, 32, 45 using equation 1: […]
where εdw is the extinction coefficient of the dyes in a 1:1 (v/v) dioxane:water solvent mixture containing 0.01% (v/v) triethylamine; this dioxane water mixture was chosen to give a large range of KL-Z values,^23 and the triethylamine additive ensures the rhodamines are in the net neutral form. The εmax is the maximal extinction coefficient, measured in 0.1% (v/v) trifluoroacetic acid in 2,2,2-trifluoroethanol (TFE).

[3] = 1-Photon spectroscopy and quantum yield of HaloTag® ligands; type: physicochemical; settings: free ligand, 10 mM HEPES pH 7.3
Protocol: 1-Photon spectroscopy of HaloTag® ligands and HaloTag® conjugates. […] All measurements were taken at ambient temperature (22 ±2° C.). Absorption spectra were recorded on a Cary Model 100 spectrometer (Agilent) using 1-cm path length 1.0-mL quartz microcuvettes from Starna Cells. Fluorescence spectra were recorded on a Cary Eclipse fluorometer (Varian) using 1-cm path length 3.5-mL quartz cuvettes (Starna Cells). As before,^13, 23, 32, 45 HaloTag® protein was used as a 100 μM solution in 1×TBS. HaloTag® ligands 12-15 (5 μM) were dissolved in 10 mM HEPES, pH 7.3, containing 0.1 mg/mL CHAPS. An aliquot of HaloTag® protein (1.5 equiv) was added, and the resulting mixture was incubated until a consistent absorbance signal was observed (60-120 min). To measure the fold-increase of absorbance upon HaloTag® binding, a “no HaloTag®” control experiment was performed where an equivalent volume of TBS blank was added in place of the protein. Reported values for extinction coefficient (ε) are averages of at least two measurements.
Quantum yield determination. All reported absolute fluorescence quantum yield values (Φf) were measured in the laboratory under identical conditions using a Quantaurus-QY spectrometer (model C11374, Hamamatsu). This instrument uses an integrating sphere to determine photons absorbed and emitted by a sample. Measurements were performed using dilute samples (absorbance<0.1), and self-absorption corrections were performed using the instrument software.^46 Reported values are averages of at least two measurements.

Compound | affinity capture (protein bound to streptavidin) [1] | KL-Z [2] | extinction coefficient (ε) [3] | fluorescence quantum yield (Φf) [3] | λabs [3] [nm] | λem [3] [nm] | capture efficiency [1] [%]
C[Si]1(C)c2cc(N3CC(F)C3)ccc2C2(OC(=O)c3ccc(C(=O)NCCOCCOCCCCCCCl)cc32)c2ccc(N3CC(F)C3)cc21 [5HTL, JF635-HaloTag® ligand, reference compound] | no appreciable protein capture | 0.0048 | – | – | – | – | –
C[Si]1(C)C2=CC(=[N+]3CC(C(=O)NCCOCCOCCNC(=O)CCCC[C@@H]4SC[C@@H]5NC(=O)N[C@@H]54)C3)C=CC2=C(c2cc(C(=O)NCCOCCOCCCCCCCl)ccc2C(=O)[O-])c2ccc(N3CCC3)cc21 (stereo partly drawn) [compound 14, Biotin-JF646-HaloTag® ligand] | efficient affinity capture | 0.0086 | 34,000 M^−1cm^−1 | 0.56 | 647 | 666 | 44.8±2.8
C[Si]1(C)C2=CC(=[N+]3CC(F)(C(=O)NCCOCCOCCNC(=O)CCCC[C@@H]4SC[C@@H]5NC(=O)N[C@@H]54)C3)C=CC2=C(c2cc(C(=O)NCCOCCOCCCCCCCl)ccc2C(=O)[O-])c2ccc(N3CC(F)C3)cc21 (stereo partly drawn) [compound 15, Biotin-JF635-HaloTag® ligand] | efficient affinity capture | 0.0032 | 2,900 M^−1cm^−1 | 0.60 | 636 | 655 | 43.4±2.3
Biotin-JF549-HaloTag® ligand [compound 12] | – | 5.9 | 92,000 M^−1cm^−1 | 0.90 | 552 | 575 | –
